Where two headings read alike, the source gives them in different places.
Assays:
[1] = system: KRASp.G12V (SW480-1AC) tumor xenografts; assay: Tumor xenograft efficacy study; format: in vivo, mouse
NCI-H358 cells = assay: Spheroid cell viability assay (CellTiter-Glo 3D); format: cell-based; details: Homo sapiens; NCI-H358, lung, KRAS p.G12C heterozygous; 72-hour treatment, spheroid culture
Experimental: (§1) For spheroid viability assays, 2.5-4.0E+04 cells were seeded per well in 96-well spheroid microplates (Corning) and incubated at 37° C., 5% CO2 for 24 hours. The same procedure was followed as described above, except viability was measured using a CellTiter-Glo® 3D Cell Viability Assay kit (Promega) according to the manufacturer's protocol.

NCI-H2122 cells = assay: Spheroid cell viability assay (CellTiter-Glo 3D); format: cell-based; details: Homo sapiens; NCI-H2122, lung, KRAS p.G12C homozygous; 72-hour treatment, spheroid culture
Experimental: as §1

SW1573 cells = assay: Spheroid cell viability assay (CellTiter-Glo 3D); format: cell-based; details: Homo sapiens; SW1573, lung, KRAS p.G12C homozygous; 72-hour treatment, spheroid culture
Experimental: as §1

NCI-H1373 cells = assay: Spheroid cell viability assay (CellTiter-Glo 3D); format: cell-based; details: Homo sapiens; NCI-H1373, lung, KRAS p.G12C homozygous; 72-hour treatment, spheroid culture
Experimental: as §1

[2] = system: ERK1/2 phosphorylation in NCI-H358 tumors; assay: Tumor pharmacodynamic assay (p-ERK, MSD immunoassay); details: Mus musculus, NCI-H358, po, 2 h, read-out: inhibition of p-ERK, reduction compared to control
[3] = system: ERK1/2 phosphorylation in AsPC-1 cells; assay: Basal ERK1/2 phosphorylation assay (MSD); format: cell-based; details: Homo sapiens, ASPC1; AsPC-1, pancreas, KRAS p.G12D homozygous; 2-hour treatment
Experimental: (§2) For cellular assays, 2.5E+04 cells were seeded per well in 96-well plates and incubated at 37° C., 5% CO2, o/n. The following day, 3-fold serially-diluted compound or DMSO was added to the cells, and the plates were incubated at 37° C., 5% CO2 for 2 hours. […] Signal intensity corresponded with phospho-ERK1/2 levels and was normalized DMSO control.

[4] = system: ERK1/2 phosphorylation in NCI-H1792 cells; assay: Basal ERK1/2 phosphorylation assay (MSD); format: cell-based; details: Homo sapiens; NCI-H1792, lung, KRAS p.G12C heterozygous; 2-hour treatment
Experimental: as §2

[5] = system: ERK1/2 phosphorylation in UM-UC-3 cells; assay: Basal ERK1/2 phosphorylation assay (MSD); format: cell-based; details: Homo sapiens, UMUC3; UM-UC-3, bladder, KRAS p.G12C homozygous; 2-hour treatment
Experimental: as §2

[6] = system: ERK1/2 phosphorylation in LS 174T cells; assay: Basal ERK1/2 phosphorylation assay (MSD); format: cell-based; details: Homo sapiens, LS174T, colon, KRAS p.G12D heterozygous, 2-hour treatment
Experimental: as §2

[7] = system: ERK1/2 phosphorylation in MIA PaCa-2 cells; assay: Basal ERK1/2 phosphorylation assay (MSD); format: cell-based; details: Homo sapiens, 2-hour treatment
Experimental: as §2

[8] = system: ERK1/2 phosphorylation in Calu-1 cells; assay: Basal ERK1/2 phosphorylation assay (MSD); format: cell-based; details: Homo sapiens; Calu-1, lung, KRAS p.G12C heterozygous; 2-hour treatment
Experimental: as §2

[9] = system: ERK1/2 phosphorylation in NCI-H1373 cells; assay: Basal ERK1/2 phosphorylation assay (MSD); format: cell-based; details: Homo sapiens; NCI-H1373, lung, KRAS p.G12C homozygous; 2-hour treatment
Experimental: as §2

[10] = system: ERK1/2 phosphorylation in NCI-H358 cells; assay: Basal ERK1/2 phosphorylation assay (MSD); format: cell-based; details: Homo sapiens
Experimental: as §2

[11] = system: ERK1/2 phosphorylation in SW837 cells; assay: Basal ERK1/2 phosphorylation assay (MSD); format: cell-based; details: Homo sapiens; SW837, colon, KRAS p.G12C heterozygous; 2-hour treatment
Experimental: as §2

[12] = system: ERK1/2 phosphorylation in HCC-827 cells; assay: Basal ERK1/2 phosphorylation assay (MSD); format: cell-based; details: Homo sapiens, HCC827; HCC-827, lung, KRAS WT EGFR p.E746_A750del; 2-hour treatment
Experimental: as §2

[13] = system: ERK1/2 phosphorylation in A-427 cells; assay: Basal ERK1/2 phosphorylation assay (MSD); format: cell-based; details: Homo sapiens; A-427, lung, KRAS p.G12D heterozygous; 2-hour treatment
Experimental: as §2

[14] = system: ERK1/2 phosphorylation in NCI-H2122 cells; assay: Basal ERK1/2 phosphorylation assay (MSD); format: cell-based; details: Homo sapiens; NCI-H2122, lung, KRAS p.G12C homozygous; 2-hour treatment
Experimental: as §2

[15] = system: ERK1/2 phosphorylation in KM12 cells; assay: Basal ERK1/2 phosphorylation assay (MSD); format: cell-based; details: Homo sapiens; KM12, colon, KRAS WT TPM3-NTRK fusion; 2-hour treatment; read-out: Basal p-ERK1/2 IC50
Experimental: as §2

[16] = system: ERK1/2 phosphorylation in COLO-205 cells; assay: Basal ERK1/2 phosphorylation assay (MSD); format: cell-based; details: Homo sapiens; COLO-205, colon, KRAS WT BRAF p.V600E; 2-hour treatment
Experimental: as §2

[17] = system: ERK1/2 phosphorylation in SW1463 cells; assay: Basal ERK1/2 phosphorylation assay (MSD); format: cell-based; details: Homo sapiens; SW1463, colon, KRAS p.G12C homozygous; 2-hour treatment
Experimental: as §2

[18] = Plasma and tumor concentrations of AMG 510 (LC-MS/MS); format: in vivo, mouse; details: tumor-bearing mice; single oral dose 10 mg/kg
Experimental: Tumor tissue homogenates were prepared by adding water to tissue (4:1 mL:g) using tungsten carbide beads in a TissueLyzer (Qiagen). To 20 μL of sample (plasma or tumor tissue homogenate), 100 μL acetonitrile containing IS (200 ng/mL tolbutamide) was added, the sample was vortexed for 10 min, centrifuged at 3500 g for 10 min, and 90 μL of supernatant was collected. To the collected supernatant 100 μL of water (containing 0.1% formic acid) was added, and 5 μL of the resulting solution was injected onto the LC-MS/MS system. Chromatographic separations were achieved using a Phenomenex Kinetex C18 50×2.1 mm, 2.7 μm, maintained at 50° C., using 0.1% formic acid in H2O (mobile phase A) and 0.1% formic acid in acetonitrile (mobile phase B). […] Peak areas were integrated using Analyst® (Sciex).

## C=CC(=O)N1CCN(c2nc(=O)n(-c3c(C)ccnc3C(C)C)c3nc(-c4c(O)cccc4F)c(F)cc23)[C@@H](C)C1 (atropisomer, axis not shown) [AMG 510, 6-fluoro-7-(2-fluoro-6-hydroxyphenyl)-1-(4-methyl-2-(2-propanyl)-3-pyridinyl)-4-((2S)-2-methyl-4-(2-propenoyl)-1-piperazinyl)pyrido[2,3-d]pyrimidin-2(1H)-one]
[1]
  tumor growth: no effect
NCI-H358 cells
  IC50: 3 ± 2 nM
NCI-H2122 cells
  IC50: 9 ± 2 nM
SW1573 cells
  IC50: > 10000 nM
NCI-H1373 cells
  IC50: 5 ± 2 nM
[2]
  inhibition at 100 mg/kg: 83%
[3]
  IC50: > 10000 nM
[4]
  IC50: 45 ± 23 nM
[5]
  IC50: 29 ± 16 nM
[6]
  IC50: > 10000 nM
[7]; second of two KRASp.G12C cell lines (FIG. 40E: MIA PaCa-2), read-out: p-ERK IC50
  IC50: ~30 nM
[7]; MIA PaCa-2, pancreas, KRAS p.G12C homozygous, read-out: Basal p-ERK1/2 IC50
  IC50: 36 ± 2 nM
[8]
  IC50: 13 ± 4 nM
[9]
  IC50: 10 ± 0.1 nM
[10]; NCI-H358, 2 h, read-out: p-ERK IC50
  IC50: ~20 nM
[10]; NCI-H358, lung, KRAS p.G12C heterozygous, 2-hour treatment, read-out: Basal p-ERK1/2 IC50
  IC50: 35 ± 3 nM
[11]
  IC50: 18 ± 2 nM
[12]
  IC50: > 10000 nM
[13]
  IC50: > 10000 nM
[14]
  IC50: 123 ± 6 nM
[15]
  IC50: > 10000 nM
[16]
  IC50: > 10000 nM
[17]
  IC50: 33 ± 4 nM
[18]
  time of peak plasma and tumor exposure: 0.5 h

From patent publication US12582657B2, “Combination therapy including a KRAS G12C inhibitor and one or more additional pharmaceutically active agents for the treatment of cancers” (Amgen Inc., priority 2018, dated 2026)
